According to patent US11787805B2, “N-oxide inhibitors of NLRP3 inflammasome” (BioAge Labs, Inc., priority 2022, dated 2023):

Experiment: Human Liver Microsome Stability Assay (HLM)
Format: in vitro ADME
Settings: human liver microsomes
Text: The stability of the N-oxide compounds provided herein was studied compared to analogs not having N-oxide. […] This enhanced metabolic stability corresponds to an extended half-life and duration of action when dosed in vivo.

SMILES	HLM t1/2 [min]
CCOc1cc(C(=O)N(C)Cc2cncc3cn[nH]c23)ccc1-c1cccc(F)c1 [A]	3.7

Same assay, conditions: human, liver microsomes, read-out: HLM t1/2

SMILES	half-life [min]
CCOc1cc(C(=O)N(C)Cc2cncc3cn[nH]c23)ccc1-c1cccc(F)c1 [B]	2
CCOc1cc(C(=O)N(C)Cc2c[n+]([O-])cc3cn[nH]c23)ccc1-c1cccc(F)c1 [Compound 001]	> 145

Continued, values first:

half-life [min]	SMILES
4	CN(Cc1cncc2cn[nH]c12)C(=O)c1ccc(-c2cccc(F)c2)c(OC2CC2)c1 [C]
> 145	CN(Cc1c[n+]([O-])cc2cn[nH]c12)C(=O)c1ccc(-c2cccc(F)c2)c(OC2CC2)c1 [Compound 004]
1.5	CN(Cc1cccc2cn[nH]c12)C(=O)c1ccc(-c2cccc(F)c2)c(OC2CC2)c1 [D]
